Test systems include EKVX NSCLC; TK-10 renal; SK-OV-3 ovarian; A498 renal; SR leukemia; RXF 393 renal; SN12C renal; HOP-92 NSCLC; A549 NSCLC; ACHN renal; OVCAR-8 ovarian.
Holding throughout (assay): DTP human tumour cell line panel, 48 h

SMILES strings stand for the structures.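 Briefly, cells in 96-well plates were exposed to five compound concentrations for 48 h, and endpoints were estimated by linear interpolation. Abbreviation: GI50, concentration required for 50% inhibition of growth. TGI: concentration producing complete growth inhibition.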 Where only a bound is given, the exact number is not on record here.

On to `CCCC(N)C(=O)c1ccccc1` (stereo not drawn), for which the TGI with EKVX NSCLC, in the assay with TK-10 renal, in the assay with SK-OV-3 ovarian, in the assay with A498 renal, in the assay with SR leukemia and in the assay with RXF 393 renal was more than 100 µM each time. Further, the TGI in the assay with SN12C renal, in the assay with HOP-92 NSCLC, in the assay on A549 NSCLC, in the assay on ACHN renal and with OVCAR-8 ovarian was more than 100 µM in each case.

Take `CCOc1ccc(/C(C=O)=C(\Cl)c2ccc(OC)c(OC)c2)cc1`: the TGI with EKVX NSCLC, in the assay with TK-10 renal, in the assay on SK-OV-3 ovarian, with A498 renal, in the assay on SN12C renal and in the assay with HOP-92 NSCLC was more than 100 µM each time. Moreover, the TGI in the assay on ACHN renal and in the assay on OVCAR-8 ovarian was more than 100 µM in each case.

Regarding `O=C(O)C1CCC(=O)N1S(=O)(=O)c1ccccc1` (stereo not drawn), the TGI with EKVX NSCLC, with SK-OV-3 ovarian, in the assay with A498 renal, with RXF 393 renal, in the assay on SN12C renal and in the assay on HOP-92 NSCLC was more than 100 µM in each case. The TGI in the assay on A549 NSCLC and in the assay on OVCAR-8 ovarian was more than 100 µM in each case.

For `C=C1C(=O)O[C@@H]2[C@H]1CCC(C)=C1C=CC(=O)[C@]12C`, the TGI was found to be 31.1 µM with EKVX NSCLC; 38 µM in the assay on TK-10 renal; 61.4 µM with SK-OV-3 ovarian; 43 µM in the assay on SR leukemia; 29.8 µM with RXF 393 renal; 29.3 µM in the assay on SN12C renal. Moreover, the TGI was 18.5 µM in the assay with HOP-92 NSCLC, 73 µM with A549 NSCLC, 30 µM with ACHN renal and 36.1 µM in the assay with OVCAR-8 ovarian.

With `CC(=O)C=NCC(=O)O`, the TGI with EKVX NSCLC, with TK-10 renal, with SK-OV-3 ovarian, with A498 renal, with SR leukemia and in the assay with RXF 393 renal was more than 100 µM each time. The TGI in the assay with SN12C renal, with HOP-92 NSCLC, in the assay with A549 NSCLC, with ACHN renal and in the assay on OVCAR-8 ovarian was more than 100 µM each time.

On to `c1ccc(N=c2nc(N3CCOCC3)ss2)cc1`, for which the TGI is 36.4 µM in the assay with EKVX NSCLC; more than 100 µM with TK-10 renal; more than 100 µM in the assay with SK-OV-3 ovarian; 79.5 µM with A498 renal; 58.3 µM with SR leukemia; 31.3 µM in the assay with RXF 393 renal. Further, the TGI in the assay with SN12C renal is 28.5 µM; with HOP-92 NSCLC, 36.3 µM; with A549 NSCLC it was more than 100 µM; in the assay with ACHN renal, 30.9 µM; with OVCAR-8 ovarian it was 28.3 µM.

As for `N#CC(Nc1cccc(C(F)(F)F)c1)c1ccccc1C(F)(F)F` (stereo not drawn), the total growth inhibition concentration (TGI) in the assay on EKVX NSCLC came out at 28.7 µM; in the assay with TK-10 renal, 27.9 µM; in the assay with SK-OV-3 ovarian it was 31.4 µM; with A498 renal, 34.2 µM; with SR leukemia it was 25.9 µM; in the assay with RXF 393 renal, 24.8 µM. The TGI in the assay with SN12C renal came to 17.9 µM; with A549 NSCLC it was 29.3 µM; with ACHN renal, 27.6 µM; in the assay on OVCAR-8 ovarian, 33 µM.

As for `COc1ccc(-c2nn(-c3cccc(NC(=O)Nc4ccccc4)c3)cc2-c2ccncc2)cc1Cl`, the GI50 was 3.4 µM with SK-OV-3 ovarian; 1.17 µM with A498 renal; 2.35 µM in the assay on SR leukemia; 1.97 µM in the assay on RXF 393 renal; 2.39 µM in the assay on SN12C renal; 2.11 µM in the assay with A549 NSCLC. The GI50 in the assay on OVCAR-8 ovarian was 2.51 µM. Moreover, the TGI in the assay with SK-OV-3 ovarian came to 30.8 µM; in the assay on A498 renal, 3.28 µM; with SR leukemia it was 6.69 µM; in the assay on RXF 393 renal, 6.47 µM; in the assay with SN12C renal, 7.39 µM; in the assay with A549 NSCLC it was 4.99 µM. This compound also showed a concentration for total growth inhibition (TGI) in the assay on OVCAR-8 ovarian of 7.18 µM.

`NC1(C(=O)O)CCc2ccc(N(CCCl)CCCl)cc2C1` (stereo not drawn): the TGI with EKVX NSCLC, in the assay with SK-OV-3 ovarian, in the assay on A498 renal, with RXF 393 renal, in the assay on SN12C renal and in the assay with HOP-92 NSCLC was more than 100 µM each time. Also, the TGI with A549 NSCLC and with OVCAR-8 ovarian was more than 100 µM each time.

On to `CCC(=O)NC(Nc1cccc(F)c1)(C(F)(F)F)C(F)(F)F`, for which the TGI in the assay with EKVX NSCLC, with TK-10 renal, with SK-OV-3 ovarian, in the assay with SR leukemia, in the assay with RXF 393 renal and in the assay with SN12C renal was more than 100 µM throughout. For the same compound, the TGI with HOP-92 NSCLC, in the assay with A549 NSCLC, with ACHN renal and in the assay with OVCAR-8 ovarian was more than 100 µM each time.

With `Cc1cc2c(C(C)C)c(O)c(O)c(C=NCCO)c2c(O)c1-c1c(C)cc2c(C(C)C)c(O)c(O)c(C=NCCO)c2c1O`, the TGI with EKVX NSCLC was found to be 7.3 µM; with TK-10 renal it was 18.4 µM; in the assay with SK-OV-3 ovarian it was 12.3 µM; with A498 renal, 9.76 µM; with SR leukemia, 3.78 µM; in the assay with RXF 393 renal, 9.51 µM. The TGI in the assay with SN12C renal worked out at 9.63 µM; in the assay with HOP-92 NSCLC it was 5.07 µM; in the assay with A549 NSCLC, 2.98 µM; in the assay on ACHN renal, 12.4 µM; with OVCAR-8 ovarian, 21.9 µM.

Regarding `O=C(Nc1ccc(Sc2ccc(N=Nc3c(O)c(S(=O)(=O)O)cc4cc(S(=O)(=O)O)ccc34)cc2)cc1)c1ccc(N=Nc2c(O)ccc3c(S(=O)(=O)O)cc(S(=O)(=O)O)cc23)cc1`, the TGI in the assay on EKVX NSCLC is more than 100 µM; in the assay with TK-10 renal it was more than 100 µM; in the assay with SK-OV-3 ovarian, more than 100 µM; in the assay on A498 renal, more than 100 µM; in the assay on SR leukemia, 85.2 µM; with RXF 393 renal, more than 100 µM. The TGI in the assay on SN12C renal, in the assay on HOP-92 NSCLC, in the assay on A549 NSCLC, in the assay with ACHN renal and in the assay on OVCAR-8 ovarian was more than 100 µM each time.

`CN1C[C@H]2[C@@H](C1=O)[C@H](c1ccccc1)ON2C`: the TGI in the assay with TK-10 renal, in the assay with SK-OV-3 ovarian, with SR leukemia, in the assay with SN12C renal, with HOP-92 NSCLC and in the assay on A549 NSCLC was more than 100 µM in each case. Besides, the TGI in the assay on ACHN renal and with OVCAR-8 ovarian was more than 100 µM in each case.

In the case of `CC(=O)O[C@H]1C=CC(=O)C(C)CC1C` (stereo partly drawn), the TGI in the assay with EKVX NSCLC, in the assay on TK-10 renal, in the assay on SK-OV-3 ovarian, with A498 renal, in the assay with SR leukemia and in the assay on RXF 393 renal was more than 100 µM in each case. In addition, the TGI in the assay with SN12C renal, in the assay with HOP-92 NSCLC, in the assay on A549 NSCLC and in the assay on ACHN renal was more than 100 µM throughout.

As for `Clc1ccc(CNc2nc(Cl)c3[nH]cnc3n2)cc1Cl`, the TGI was more than 100 µM in the assay on EKVX NSCLC; 84.7 µM in the assay with TK-10 renal; 85.5 µM in the assay with SK-OV-3 ovarian; 45.4 µM in the assay with A498 renal; 77.6 µM in the assay with SR leukemia; more than 100 µM in the assay with RXF 393 renal. The TGI in the assay on SN12C renal is more than 100 µM; with A549 NSCLC, more than 100 µM; in the assay on ACHN renal, more than 100 µM; in the assay with OVCAR-8 ovarian, 99.2 µM.

As to `O=C(Nc1c(C(=O)NC2CCCCC2)[nH]c(=O)[nH]c1=O)c1ccc(Cl)cc1`, the TGI in the assay with EKVX NSCLC, in the assay with TK-10 renal, in the assay with SK-OV-3 ovarian, in the assay with SR leukemia, in the assay on RXF 393 renal and in the assay with SN12C renal was more than 100 µM throughout. The TGI with HOP-92 NSCLC, in the assay on A549 NSCLC, with ACHN renal and in the assay on OVCAR-8 ovarian was more than 100 µM each time.

Turning to `Fc1ccc(-c2nn3c(-c4cc(C(F)(F)F)cc(C(F)(F)F)c4)nnc3s2)cc1`, the GI50 was 1.75 µM with EKVX NSCLC; 1.38 µM in the assay on SK-OV-3 ovarian; 1.78 µM with RXF 393 renal; 2.51 µM with SN12C renal; 1.22 µM in the assay on HOP-92 NSCLC; 1.77 µM in the assay on OVCAR-8 ovarian. Further, the TGI in the assay on EKVX NSCLC is more than 50 µM; in the assay on SK-OV-3 ovarian, 3.9 µM; in the assay with RXF 393 renal, more than 50 µM; in the assay with SN12C renal, more than 50 µM; in the assay with HOP-92 NSCLC it was 3.93 µM; in the assay with OVCAR-8 ovarian, more than 50 µM.

Broadly, the TGI is the concentration at which net growth stops. The low end stands for more potent growth arrest, the high end for less potent growth arrest. What is called GI50 is the concentration at which growth is held to half of that of the control.

Source of the values: PubChem BioAssay (NCI).
